Experimental data as given in ChEMBL document CHEMBL5291721, “A preclinical secondary pharmacology resource illuminates target-adverse drug reaction associations of marketed drugs” (Nat Commun, 2023).

Key:
[1] = biological target: Beta-2 adrenergic receptor (Homo sapiens, UniProt P07550)
[2] = biological target: T1, Gastrin/cholecystokinin type B receptor (Homo sapiens, UniProt P32239)
T1 sequence (P32239 whole entry): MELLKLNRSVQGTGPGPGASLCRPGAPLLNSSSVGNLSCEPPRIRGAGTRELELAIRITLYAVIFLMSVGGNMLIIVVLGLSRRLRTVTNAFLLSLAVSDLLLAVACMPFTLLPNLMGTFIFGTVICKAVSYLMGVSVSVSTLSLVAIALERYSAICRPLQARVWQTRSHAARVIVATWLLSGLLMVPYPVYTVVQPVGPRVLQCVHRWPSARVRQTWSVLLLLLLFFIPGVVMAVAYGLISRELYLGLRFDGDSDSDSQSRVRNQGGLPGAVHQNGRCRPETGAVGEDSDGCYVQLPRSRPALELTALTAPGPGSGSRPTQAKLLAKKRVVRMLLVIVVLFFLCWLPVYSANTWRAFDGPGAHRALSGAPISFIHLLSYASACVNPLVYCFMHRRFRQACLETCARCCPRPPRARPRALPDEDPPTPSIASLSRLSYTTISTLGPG

Progesterone receptor = biological target: T2, Progesterone receptor (Homo sapiens, UniProt P06401); type: functional
T2 sequence (P06401 whole entry): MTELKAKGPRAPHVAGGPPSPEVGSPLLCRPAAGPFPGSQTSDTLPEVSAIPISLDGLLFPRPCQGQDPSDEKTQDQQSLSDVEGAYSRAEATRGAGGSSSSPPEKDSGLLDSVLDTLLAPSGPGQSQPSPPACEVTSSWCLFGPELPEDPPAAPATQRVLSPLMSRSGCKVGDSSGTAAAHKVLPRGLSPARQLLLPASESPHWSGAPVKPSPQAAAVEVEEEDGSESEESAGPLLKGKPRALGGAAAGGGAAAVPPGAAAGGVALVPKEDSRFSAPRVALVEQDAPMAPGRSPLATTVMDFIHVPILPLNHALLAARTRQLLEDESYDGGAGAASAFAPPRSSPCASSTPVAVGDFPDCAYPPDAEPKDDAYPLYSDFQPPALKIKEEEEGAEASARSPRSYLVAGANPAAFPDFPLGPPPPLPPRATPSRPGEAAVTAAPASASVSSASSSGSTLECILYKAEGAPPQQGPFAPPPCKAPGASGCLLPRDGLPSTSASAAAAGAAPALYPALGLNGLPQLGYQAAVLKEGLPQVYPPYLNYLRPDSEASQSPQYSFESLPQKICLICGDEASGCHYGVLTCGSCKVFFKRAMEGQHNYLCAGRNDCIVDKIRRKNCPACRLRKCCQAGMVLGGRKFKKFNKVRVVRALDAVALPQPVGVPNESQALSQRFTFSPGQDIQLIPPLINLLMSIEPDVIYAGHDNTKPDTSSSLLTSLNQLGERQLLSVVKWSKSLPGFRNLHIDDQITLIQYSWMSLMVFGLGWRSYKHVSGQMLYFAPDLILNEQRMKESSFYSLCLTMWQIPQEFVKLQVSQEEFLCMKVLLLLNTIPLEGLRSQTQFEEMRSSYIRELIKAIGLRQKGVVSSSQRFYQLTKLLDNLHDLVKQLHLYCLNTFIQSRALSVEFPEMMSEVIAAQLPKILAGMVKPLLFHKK

[3] = biological target: T3, Muscarinic acetylcholine receptor M2 (Homo sapiens, UniProt P08172); type: functional, cell-based
T3 sequence (P08172 whole entry): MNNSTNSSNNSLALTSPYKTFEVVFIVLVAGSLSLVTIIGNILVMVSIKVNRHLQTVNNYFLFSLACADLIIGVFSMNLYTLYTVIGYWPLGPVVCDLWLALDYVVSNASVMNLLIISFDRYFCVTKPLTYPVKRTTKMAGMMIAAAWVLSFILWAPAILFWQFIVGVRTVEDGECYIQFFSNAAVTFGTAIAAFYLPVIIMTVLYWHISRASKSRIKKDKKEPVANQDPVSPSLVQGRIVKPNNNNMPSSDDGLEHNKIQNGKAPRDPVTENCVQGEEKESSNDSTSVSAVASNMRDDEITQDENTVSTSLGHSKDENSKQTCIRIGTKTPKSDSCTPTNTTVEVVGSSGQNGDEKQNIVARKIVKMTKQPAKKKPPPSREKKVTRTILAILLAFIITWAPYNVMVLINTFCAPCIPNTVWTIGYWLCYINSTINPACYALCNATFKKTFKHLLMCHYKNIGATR

[4] = biological target: T4, Equilibrative nucleoside transporter 1 (Homo sapiens, UniProt Q99808)
T4 sequence (Q99808 whole entry): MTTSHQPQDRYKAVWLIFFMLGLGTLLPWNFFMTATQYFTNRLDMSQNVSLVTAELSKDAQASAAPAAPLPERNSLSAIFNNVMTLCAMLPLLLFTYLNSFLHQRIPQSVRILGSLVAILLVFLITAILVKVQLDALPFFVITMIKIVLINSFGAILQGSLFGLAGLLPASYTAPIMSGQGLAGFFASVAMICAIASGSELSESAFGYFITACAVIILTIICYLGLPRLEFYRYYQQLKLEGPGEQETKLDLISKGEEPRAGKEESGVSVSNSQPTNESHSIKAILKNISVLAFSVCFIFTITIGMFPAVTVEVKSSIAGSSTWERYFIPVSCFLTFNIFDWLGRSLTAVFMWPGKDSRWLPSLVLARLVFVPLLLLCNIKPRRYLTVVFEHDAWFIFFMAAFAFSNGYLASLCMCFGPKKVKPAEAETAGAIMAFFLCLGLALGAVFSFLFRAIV

Histamine H1 receptor = Histamine H1 receptor (Homo sapiens, UniProt P35367)
Histamine H1 receptor, sequence (P35367 whole entry): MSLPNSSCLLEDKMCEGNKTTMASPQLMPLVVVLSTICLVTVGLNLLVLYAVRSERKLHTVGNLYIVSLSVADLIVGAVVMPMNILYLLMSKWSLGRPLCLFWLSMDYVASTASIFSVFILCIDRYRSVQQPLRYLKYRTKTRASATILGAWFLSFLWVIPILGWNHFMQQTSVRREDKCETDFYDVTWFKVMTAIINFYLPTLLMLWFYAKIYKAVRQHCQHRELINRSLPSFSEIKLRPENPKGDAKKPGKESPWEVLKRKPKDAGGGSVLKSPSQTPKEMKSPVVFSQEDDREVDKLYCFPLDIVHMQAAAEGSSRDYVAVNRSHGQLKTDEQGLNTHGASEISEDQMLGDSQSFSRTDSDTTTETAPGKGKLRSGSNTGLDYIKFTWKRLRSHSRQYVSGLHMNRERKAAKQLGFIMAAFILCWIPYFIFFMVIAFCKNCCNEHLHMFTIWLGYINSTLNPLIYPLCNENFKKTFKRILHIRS

[5] = biological target: T5, 5-hydroxytryptamine receptor 2A (Homo sapiens, UniProt P28223); type: functional, cell-based
T5 sequence (P28223 whole entry): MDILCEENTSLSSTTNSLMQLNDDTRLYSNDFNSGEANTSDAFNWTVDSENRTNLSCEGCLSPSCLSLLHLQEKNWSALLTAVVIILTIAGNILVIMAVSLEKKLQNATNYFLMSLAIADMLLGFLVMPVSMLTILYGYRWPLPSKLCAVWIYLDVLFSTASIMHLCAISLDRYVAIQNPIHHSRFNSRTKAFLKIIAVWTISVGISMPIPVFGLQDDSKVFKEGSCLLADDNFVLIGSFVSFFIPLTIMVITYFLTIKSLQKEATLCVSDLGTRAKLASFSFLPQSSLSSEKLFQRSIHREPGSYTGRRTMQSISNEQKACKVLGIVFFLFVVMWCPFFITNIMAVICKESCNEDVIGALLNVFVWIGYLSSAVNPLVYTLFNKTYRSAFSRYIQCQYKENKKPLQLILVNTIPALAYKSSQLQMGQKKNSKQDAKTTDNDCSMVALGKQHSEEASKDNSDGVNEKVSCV

[6] = biological target: T5, 5-hydroxytryptamine receptor 2A; type: functional, cell-based; remark: listed apart in the source
Note: assay procedure not described here.

Beta-2 adrenergic receptor, sequence (P07550 whole entry): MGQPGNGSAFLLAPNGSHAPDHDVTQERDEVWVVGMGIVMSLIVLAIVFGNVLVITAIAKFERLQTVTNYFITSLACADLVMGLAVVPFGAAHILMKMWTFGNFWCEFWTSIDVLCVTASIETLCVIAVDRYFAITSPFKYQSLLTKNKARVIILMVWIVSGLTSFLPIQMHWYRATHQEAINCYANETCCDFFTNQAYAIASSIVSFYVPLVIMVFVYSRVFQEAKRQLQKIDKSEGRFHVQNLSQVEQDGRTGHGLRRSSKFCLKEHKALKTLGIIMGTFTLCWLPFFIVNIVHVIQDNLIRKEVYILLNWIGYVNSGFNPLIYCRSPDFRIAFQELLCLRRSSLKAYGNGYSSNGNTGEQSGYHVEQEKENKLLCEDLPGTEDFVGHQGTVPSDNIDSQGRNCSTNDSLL

AC50 [1]: > 30 µM | AC50 [2]: > 30 µM | AC50 (Progesterone receptor): > 30 µM | AC50 [3]: > 30 µM | AC50 [4]: 39.5 µM | AC50 (Histamine H1 receptor): > 30 µM | AC50 [5]: > 30 µM | AC50 [6]: > 30 µM
SMILES: CN(C)c1cc(NC(=O)CNC(C)(C)C)c(O)c2c1C[C@H]1C[C@H]3[C@H](N(C)C)C(O)=C(C(N)=O)C(=O)[C@@]3(O)C(O)=C1C2=O [TIGECYCLINE]
